# Experimental data taken from patent US20160009697A1, “PYRIDINE DERIVATIVES AS 5-HT6 RECEPTOR ANTAGONISTS” (Selvita S.A., priority 2013, published 2016).
# Key:
# [1] = target: T1, D2 receptor (Homo sapiens, UniProt P14416); test: Dopamine receptor D2 binding affinity, competitive radioligand binding with [3H]methyl-spiperone; details: membranes of recombinant cells, [3H]methyl-spiperone 0.2 nM, 60 min at 37° C.
# T1 construct: expressed in transfected cells; membrane homogenates
# Protocol: Dopamine receptor D2 binding affinity of compounds of formula I was also evaluated. […] After a 60 minute incubation at 37° C., the incubation was terminated by vacuum filtration. The filters were washed with buffer and the filters were counted for radioactivity using liquid scintillation spectrometry. Concentrations ranging from 10^−12 M to 10^−5 M of the test compound were evaluated. […] Binding in the presence of varying concentrations of test compound is expressed as a percentage of specific binding in the absence of test compound. The results are plotted as log % bound versus log concentration of test compound. […] A linear regression line of data points is plotted, from which the IC50 value is determined and the Ki value is determined based upon the following equation: […]
# [2] = target: T2, human H1 receptor (Homo sapiens, UniProt P35367); test: H1 functional assay (calcium response, CHO cells); type: cell-based; details: agonist histamine, 30 min preincubation, Fluo-4NW calcium, read-out: H1 antagonist Kb
# T2 construct: expressed in transfected cells; host or cells: CHO cells
# Source text: (§1) The histamine receptor H1 is linked to an intracellular G-protein (Gq) that activates phospholipase C and the phosphatidylinositol (PIP2) signaling pathway. The pathway starts with stimulation of the receptor and further activation of phospholipase C (PLC). Inositol-1,4,5-triphosphate (IP3), which is one of the products of PLC activity, binds to IP3 receptor in smooth ER. Opening of IP3R, which acts as a calcium ion channel, causes an increase in Ca^2+ concentration in the cytosol, which can be quantitatively measured using calcium-sensitive fluorescent dyes.
# H1 antagonism was measured in CHO cells (Chinese Hamster Ovary cell-line) transfected with pcDNA for human H1 receptor. Cells were dispensed into 96-well assay plates at a density of 25 000-30 000 cells per well and, following over night recovery, assayed for calcium response. Tests were performed using Fluo-4NW Calcium Assay Kit (Molecular Probes #F36206) and standard testing procedure for this kit. Cells were preincubated with test compound for 30 min, then endogenous agonist histamine was added. Fluorescence was measured by FLEXstation 3 (Molecular Devices). The apparent dissociation constants (Kb) were calculated by means of GraphPhad Prism 5 software using the modified Cheng Prusoff equation (Kb=IC50/(1+(A/EC50A)), where A=concentration of reference agonist in the assay and EC50A=EC50 value of the reference agonist). For each IC50 determination, agonist dose response curve is run in parallel with the antagonist, on the same experimental plate. Curves maximal and minimal values should be reached in assays and it is checked if Prism uses proper maximal and minimal values for curve fitting.
# [3] = target: T3, human 5-HT6 (Homo sapiens, UniProt P50406); test: 5-HT6 binding affinity, competitive radioligand binding with [3H]-LSD
# [4] = target: T4, short form of human D2 receptor (Homo sapiens, UniProt P14416); test: D2 functional assay (cAMP-Glo, CHO cells); type: cell-based; details: forskolin 10 μM, read-out: D2 antagonist Kb
# T4 construct: expressed in transfected cells; host or cells: CHO cells
# Protocol: Dopamine D2 receptor inhibits adenylyl cyclase activity. CHO cells (Chinese Hamster Ovary cell-line) transfected with short form of human D2 receptor were used for D2 functional testing. Cells were seeded at a density of 10 000 cells/well in white-walled 96-well plates one day before the experiment. Forskolin at 10 μM was used to increase the intracellular level of cAMP. Compounds were tested according to the procedure from cAMP-Glo™ kit manufacturer's instruction.
# [5] = target: T3, human 5-HT6; test: 5-HT6 functional assay (calcium response, Chem-10 host cells); type: cell-based; set-up: host or cells: Chem-10 host cells, co-expressing a recombinant promiscuous G protein; details: agonist serotonin, 30 min preincubation, Fluo-4NW calcium, read-out: 5-HT6 antagonist Kb
# Source text: The serotonin receptor 5-HT6 is a Gs coupled receptor. In the brain it responds to serotonin and other agonists by increasing adenyl cyclase mediated production of cyclic AMP. 5-HT6 can be also functionally tested using different coupling types. Millipore's cloned human 5-HT6-expressing cell line is made in the Chem-10 host, which supports high levels of recombinant 5-HT6 expression on the cell surface and contains optimized levels of a recombinant promiscuous G protein to couple the receptor to the calcium signaling pathway. Cells were thawed, resuspended in media, dispensed into 96-well assay plates at a density of 27500 cells per well and, following over night recovery, assayed for calcium response. Tests were performed using Fluo-4NW Calcium Assay Kit (Molecular Probes #F36206) and standard testing procedure for this kit. Cells were preincubated with test compound for 30 min, then endogenous agonists serotonin was added. Fluorescence was measured by FLEXstation 3 (Molecular Devices). The apparent dissociation constants (Kb) were calculated by means of GraphPhad Prism 5 software using the modified Cheng Prusoff equation (Kb=IC50/(1+(A/EC50A)), where A=concentration of reference agonist in the assay and EC50A=EC50 value of the reference agonist). For each IC50 determination, agonist dose response curve is run in parallel with the antagonist, on the same experimental plate. Curves maximal and minimal values should be reached in assays and it is checked if Prism uses proper maximal and minimal values for curve fitting.
# [6] = system: human alpha1 receptor; test: Alpha1 functional assay (calcium response, LNCaP cells); type: cell-based; details: agonist noradrenaline, 30 min preincubation, Fluo-4NW calcium, read-out: Alpha1 antagonist Kb
# Source text: as §1, with “alpha-1 (α1) adrenergic” for “histamine”, “receptor” for “receptor H1”, “coupled” for “linked”, “the Gq heterotrimeric” for “an intracellular”, “G-protein” for “G-protein (Gq)”, “in” for “in the”
# Alpha1 antagonism was measured in LNCaP (Human lymph node carcinoma of the prostate) cells expressing human alpha1 receptor. Cells were dispensed into 96-well assay plates at a density of 30 000 cells per well and, following over night recovery, assayed for calcium response. Tests were performed using Fluo-4NW Calcium Assay Kit (Molecular Probes #F36206) and standard testing procedure for this kit. Cells were preincubated with test compound for 30 min, then endogenous agonist noradrenaline was added. Fluorescence was measured by FLEXstation 3 (Molecular Devices). The apparent dissociation constants (Kb) were calculated by means of GraphPhad Prism 5 software using the modified Cheng Prusoff equation (Kb=IC50/(1+(A/EC50A)), where A=concentration of reference agonist in the assay and EC50A=EC50 value of the reference agonist). For each IC50 determination, agonist dose response curve is run in parallel with the antagonist, on the same experimental plate. Curves maximal and minimal values should be reached in assays, and it is checked if Prism uses proper maximal and minimal values for curve fitting.
# T2 sequence (P35367 whole entry): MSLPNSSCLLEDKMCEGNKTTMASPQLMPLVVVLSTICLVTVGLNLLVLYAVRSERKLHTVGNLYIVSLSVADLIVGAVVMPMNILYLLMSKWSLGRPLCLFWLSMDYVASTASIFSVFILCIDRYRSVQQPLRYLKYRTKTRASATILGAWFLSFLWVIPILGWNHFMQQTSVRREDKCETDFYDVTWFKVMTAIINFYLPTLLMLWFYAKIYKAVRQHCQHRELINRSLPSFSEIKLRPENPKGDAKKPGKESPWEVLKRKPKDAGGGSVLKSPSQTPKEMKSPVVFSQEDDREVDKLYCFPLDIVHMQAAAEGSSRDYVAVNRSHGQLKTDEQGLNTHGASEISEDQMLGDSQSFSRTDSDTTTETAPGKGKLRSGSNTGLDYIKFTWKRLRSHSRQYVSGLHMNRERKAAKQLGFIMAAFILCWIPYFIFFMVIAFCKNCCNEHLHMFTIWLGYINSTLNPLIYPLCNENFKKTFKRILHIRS
# T4 sequence (P14416 1-414 isoform P14416-2): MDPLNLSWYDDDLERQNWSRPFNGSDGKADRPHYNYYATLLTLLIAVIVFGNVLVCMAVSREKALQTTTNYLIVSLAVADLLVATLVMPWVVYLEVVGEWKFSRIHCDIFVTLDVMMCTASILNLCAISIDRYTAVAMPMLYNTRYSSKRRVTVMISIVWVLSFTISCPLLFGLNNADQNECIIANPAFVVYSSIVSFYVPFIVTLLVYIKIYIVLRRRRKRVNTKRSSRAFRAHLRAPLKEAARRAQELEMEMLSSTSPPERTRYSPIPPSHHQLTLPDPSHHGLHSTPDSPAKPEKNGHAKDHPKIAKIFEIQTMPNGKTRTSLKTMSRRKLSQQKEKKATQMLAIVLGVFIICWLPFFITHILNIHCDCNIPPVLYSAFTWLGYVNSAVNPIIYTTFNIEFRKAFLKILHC
# T1 sequence (P14416 whole entry): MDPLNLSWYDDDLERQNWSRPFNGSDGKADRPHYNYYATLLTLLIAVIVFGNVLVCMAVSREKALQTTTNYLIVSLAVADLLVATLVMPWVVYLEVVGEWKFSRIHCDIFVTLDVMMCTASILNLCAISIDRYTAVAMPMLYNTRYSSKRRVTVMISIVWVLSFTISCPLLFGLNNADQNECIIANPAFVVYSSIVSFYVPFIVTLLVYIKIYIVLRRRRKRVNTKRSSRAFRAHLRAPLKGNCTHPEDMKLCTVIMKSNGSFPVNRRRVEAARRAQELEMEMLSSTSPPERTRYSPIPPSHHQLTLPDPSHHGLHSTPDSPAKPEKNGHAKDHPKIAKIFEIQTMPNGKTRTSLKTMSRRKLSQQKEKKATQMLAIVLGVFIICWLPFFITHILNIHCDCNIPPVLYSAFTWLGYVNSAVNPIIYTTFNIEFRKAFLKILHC
# T3 sequence (P50406 whole entry): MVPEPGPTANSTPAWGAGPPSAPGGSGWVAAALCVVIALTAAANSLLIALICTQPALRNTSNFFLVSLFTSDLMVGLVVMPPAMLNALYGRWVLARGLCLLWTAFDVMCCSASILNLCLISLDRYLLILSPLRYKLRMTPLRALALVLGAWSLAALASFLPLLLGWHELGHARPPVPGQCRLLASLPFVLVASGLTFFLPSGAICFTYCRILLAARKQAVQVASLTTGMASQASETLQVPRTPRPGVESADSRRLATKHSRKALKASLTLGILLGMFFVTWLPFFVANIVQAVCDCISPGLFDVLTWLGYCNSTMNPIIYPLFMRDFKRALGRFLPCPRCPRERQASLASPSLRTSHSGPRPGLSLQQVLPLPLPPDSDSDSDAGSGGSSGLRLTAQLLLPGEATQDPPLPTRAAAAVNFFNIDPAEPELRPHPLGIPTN
SMILES,Ki [1] [µM],Kb [2] [nM],Ki [3] [nM],Kb [4] [nM],Kb [5] [nM],Kb [6] [nM]
"COc1ccc(-c2cc(CC3CCOCC3)nc(N3CCNC(C)(C)C3)c2)cc1 [Example 8, 1-[4-(4-Methoxyphenyl)-6-(oxan-4-ylmethyl)pyridin-2-yl]-3,3-dimethylpiperazine]",> 10,19.4,36.1,> 3500,4.7,1600
"CN1CCN(c2cc(-c3ccc4ccccc4n3)cc(CC3CCOCC3)n2)CC1 [Example 2, 2-[2-(4-Methylpiperazin-1-yl)-6-(oxan-4-ylmethyl)pyridin-4-yl]quinoline]",4.1,462,39.6,> 3500,204,> 2000
"COc1ccc(-c2cc(C(C)C3CCOCC3)nc(N3CCN(C)CC3)c2)cc1 (stereo not drawn) [Example 7, 1-[4-(4-Methoxyphenyl)-6-[1-(oxan-4-yl)ethyl]pyridin-2-yl]-4-methyl-piperazine]",> 10,> 2000,12.2,340,0.01,29.3
"COc1ccc(-c2cc(CC3CCOCC3)nc(N3CCN(C)CC3)c2)c(F)c1 [Example 5, 1-[4-(2-Fluoro-4-methoxyphenyl)-6-(oxan-4-ylmethyl)pyridin-2-yl]-4-methylpiperazine]",1.25,1230,22.8,> 2000,5.06,171
"CN1CCN(c2cc(-c3ccccn3)cc(CC3CCOCC3)n2)CC1 [Example 3, 1-Methyl-4-[6-(oxan-4-ylmethyl)-4-(pyridin-2-yl)pyridin-2-yl]piperazine]",1.18,> 5000,22.2,> 2000,81.8,83.8
"CN1CCN(c2cc(-c3cscn3)cc(CC3CCOCC3)n2)CC1 [Example 4, 1-Methyl-4-[6-(oxan-4-ylmethyl)-4-(1,3-thiazol-4-yl)pyridin-2-yl]-piperazine]",> 10,> 5000,14.3,781,1.97,203
"COc1ccc(-c2cc(CC3CCOCC3)nc(N3CCC(N)CC3)c2)cc1 [Example 6, 1-[4-(4-Methoxyphenyl)-6-(oxan-4-ylmethyl)pyridin-2-yl]piperidin-4-amine]",> 10,> 1000,38.8,> 3500,> 1000,> 2000
